The target in assay [1] is T1, huIL-27 (Homo sapiens, UniProt Q14213+Q8NEV9).
T1 construct: purchased R&D Systems
T1 sequence (Q8NEV9 29-243): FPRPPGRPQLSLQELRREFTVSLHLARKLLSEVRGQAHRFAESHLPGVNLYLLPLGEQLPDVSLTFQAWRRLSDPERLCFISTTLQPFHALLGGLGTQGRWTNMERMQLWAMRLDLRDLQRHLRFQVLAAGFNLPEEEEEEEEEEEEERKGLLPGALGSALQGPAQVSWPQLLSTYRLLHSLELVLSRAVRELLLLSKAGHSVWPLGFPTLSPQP
T1 sequence (Q14213 21-229): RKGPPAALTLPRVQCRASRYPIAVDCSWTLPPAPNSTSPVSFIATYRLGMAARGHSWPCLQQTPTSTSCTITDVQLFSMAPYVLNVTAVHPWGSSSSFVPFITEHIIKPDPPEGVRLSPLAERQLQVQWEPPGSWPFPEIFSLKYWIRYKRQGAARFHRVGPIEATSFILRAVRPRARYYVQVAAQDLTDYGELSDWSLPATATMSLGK
Description: Phospho-STAT3 (BIO-PLEX) neutralization of IL-27 by soluble receptors, total human PBMCs. Conditions: ligand huIL-27 at EC90 (2 nM). The assay is classed as cell-based. An excerpt:
(§1) Whole mouse spleens were harvested from C57 B1/6 mice and washed two times with 1×PBS before being plated out at 2×10^5 cells/well in assay media (RPMI 1640 plus 10% fetal bovine serum) in 96-well, round-bottom tissue culture plates. Total human PBMC (peripheral blood mononuclear cells) were thawed from a frozen vial collected from a leukapherisis donation and washed two times with 1×PBS before being plated out at 10^6 cells/well in assay media in 96-well, round-bottom tissue culture plates. […] Following pre-incubation, treatments were added to the plates containing the cells and incubated together at 37° C. for 15 minutes.
(§2) Following incubation, cells were washed with ice-cold wash buffer (BIO-PLEX Cell Lysis Kit, BIO-RAD Laboratories, Hercules, Calif.) and put on ice to stop the reaction according to manufacturer's instructions. […]
(§3) Capture beads (BIO-PLEX Phospho-Stat3 Assay, BIO-RAD Laboratories) were combined with 50 μL of 1:1 diluted lysates and added to a 96-well filter plate according to manufacture's instructions (BIO-PLEX Phosphoprotein Detection Kit, BIO-RAD Laboratories). […] After the final wash, beads were resuspended in 125 μL/well of bead suspension buffer, shaken for 30 seconds, and read on an array reader (BIO-PLEX, BIO-RAD Laboratories) according to the manufacture's instructions. Data were analyzed using analytical software (BIO-PLEX MANAGER 3.0, BIO-RAD Laboratories). […]

Assay [2] has as its system acute graft-vs-host disease. Description: Mouse model of acute graft-vs-host disease. The assay is classed as in vivo. The note with it: acute GVHD. How it is done:
Efficacy of IL-27 antagonists was assayed in a mouse model of acute graft-vs-host disease (Durie et al., J. Clin. Invest. 94:1333-1338, 1994). Parental mice (C57BL/6; n=12) were euthanized, and their spleens were collected. The pooled spleens were smashed using two glass slides to dissociate splenic cells. Lysis buffer was added to the splenocyte suspension to remove red blood cells. The cells were washed in RPMI 1640 (10% FBS) medium and resuspended in an appropriate amount of PBS to make a cell concentration of 300 million cells/ml. Protein treatments were administered by intraperitoneal injection every other day beginning on day-1 and continuing until day 15. Dexamethasone (DEX) was administered by injection daily on days 0 through 6. On day 0, 75 million donor splenic lymphocytes from B6 mice (250.micro.1 per injection) were injected intravenously into recipient mice (C57BL/6×DBA/2 F1 (BDF1); n=10 per group) mice. Mice were monitored 3 times a week for changes in body weight and any signs of moribundity. Mice that lost >20% of their initial body weight were euthanized. Otherwise, mice were sacrificed 18 days after the cell transfer. Spleens were collected, and a CTL-specific lysis assay using P815 cells was performed as a quantitative measurement of acute GVHD. Furthermore, spleens were stained for T- and B-cell markers, including MHC class I markers (H2^b and H2^d) to look at donor/recipient cell ratio (acute GVHD spleen cells are mostly donor cells). Sera were collected to measure serum level of IgG1, IgG2a, and IgE by ELISA, and cytokine and chemokine levels using a commercially available kit (Luminex Corporation, Austin, Tex.).

Assay [3] deals with T1, huIL-27. Kind of assay: Phospho-STAT3 (BIO-PLEX) neutralization of IL-27 by soluble receptors, mouse spleens. The note with it: ligand huIL-27 at EC90 (2 nM). It is filed as cell-based.
Text: as §1, §2, §3

The target of the next assay is T2, muIL-27 (Mus musculus, UniProt O35228+Q8K3I6).
T2 construct: purchased R&D Systems
T2 sequence (Q8K3I6 29-234): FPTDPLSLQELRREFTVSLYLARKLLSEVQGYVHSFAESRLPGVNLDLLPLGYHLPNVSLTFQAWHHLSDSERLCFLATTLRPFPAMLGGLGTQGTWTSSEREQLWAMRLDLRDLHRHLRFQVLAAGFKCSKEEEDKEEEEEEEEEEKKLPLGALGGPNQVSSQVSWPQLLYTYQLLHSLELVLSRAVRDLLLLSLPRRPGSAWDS
T2 sequence (O35228 19-228): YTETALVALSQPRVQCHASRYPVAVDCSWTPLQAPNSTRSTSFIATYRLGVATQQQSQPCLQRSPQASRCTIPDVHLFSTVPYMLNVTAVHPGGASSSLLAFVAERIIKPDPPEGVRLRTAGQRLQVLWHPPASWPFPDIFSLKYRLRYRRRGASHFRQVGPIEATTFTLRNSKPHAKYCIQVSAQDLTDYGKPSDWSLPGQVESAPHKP
The description is as above. Conditions: ligand muIL-27 at EC90 (0.2 nM). It is filed as cell-based.
Text: as §1, §2, §3

One may read the IC50 as the concentration needed to halve the response being measured. On to “human IL-27RA-Fc5: Extracellular domain of human IL27RA (amino acids 1 to 512 of SEQ ID NO:3) fused to Fc5, effector minus human gamma1 Fc; SEQ ID NO:16”, for which the IC50 with huIL-27 [1] was 0.95 nM. Moreover, in assay [2], the colon length shortening result is reported as “did prevent colon length shortening” and the splenomegaly entry is recorded as “did not prevent splenomegaly”. Also, in assay [2] (BDF1 recipients, day 18), the “host spleen cells, CD4+T cells, and Treg cells” value is “maintained host spleen cells, CD4+T cells, and Treg cells”. Also, in assay [2] (versus PBS control group), the Body weight loss result was “not severe and was significantly less than in the PBS control group”. In assay [2] (serum, arrows, key not given), the IL-2 level result was “↑↑↑”, the IL-5 level entry was “↑↑”, the IL-6 level result is “↓↓↓” and the IgE level result is on record as “↑”. In addition, in assay [2] (serum, arrows, key not given), the IgG1 level result is recorded as “↑↑” and the IgG2A level result was “↑↑”. Moreover, the IC50 with huIL-27 [3] amounted to 0.32 nM. Further, in the assay with muIL-27, the IC50 came to 0.14 nM.

The values are drawn from patent US20100093076A1, “SOLUBLE IL-27 RECEPTOR” (priority 2006, published 2010).
